Experimental data published in patent publication WO2023231996A1, “Crystal forms of hydroxamic acid ester compound and salt thereof, and preparation method” (Shenzhen Chipscreen Biosciences Co Ltd, priority 2022, dated 2023).

How the values were obtained:
[1] = Solid-state stability by XRPD under stress, accelerated and room-temperature conditions; type: physicochemical; conditions: high temperature (60°C), high humidity (25°C/92.5%RH), accelerated (40°C/75%RH), room temperature (25°C/60%RH), open
[2] = Hygroscopicity by dynamic moisture adsorption and desorption (DVS); type: physicochemical; conditions: humidity 50%-95%-0%-50%
[3] = Crystal form by XRPD after DVS; type: physicochemical; conditions: humidity 50%-95%-0%-50%
[4] = molecular target: Tyk2 (Homo sapiens, UniProt P29597); conditions: recorded in PCT/CN2021/134929; cited from earlier work
[5] = Thermodynamic stability by competitive slurry, XRPD (Example 34); type: physicochemical; conditions: suspended in saturated acetonitrile or MTBE solution, equal amounts of form E and form AH, 6 days
[6] = light not given in the conclusion

Tyk2, sequence (P29597 whole entry, species assumed): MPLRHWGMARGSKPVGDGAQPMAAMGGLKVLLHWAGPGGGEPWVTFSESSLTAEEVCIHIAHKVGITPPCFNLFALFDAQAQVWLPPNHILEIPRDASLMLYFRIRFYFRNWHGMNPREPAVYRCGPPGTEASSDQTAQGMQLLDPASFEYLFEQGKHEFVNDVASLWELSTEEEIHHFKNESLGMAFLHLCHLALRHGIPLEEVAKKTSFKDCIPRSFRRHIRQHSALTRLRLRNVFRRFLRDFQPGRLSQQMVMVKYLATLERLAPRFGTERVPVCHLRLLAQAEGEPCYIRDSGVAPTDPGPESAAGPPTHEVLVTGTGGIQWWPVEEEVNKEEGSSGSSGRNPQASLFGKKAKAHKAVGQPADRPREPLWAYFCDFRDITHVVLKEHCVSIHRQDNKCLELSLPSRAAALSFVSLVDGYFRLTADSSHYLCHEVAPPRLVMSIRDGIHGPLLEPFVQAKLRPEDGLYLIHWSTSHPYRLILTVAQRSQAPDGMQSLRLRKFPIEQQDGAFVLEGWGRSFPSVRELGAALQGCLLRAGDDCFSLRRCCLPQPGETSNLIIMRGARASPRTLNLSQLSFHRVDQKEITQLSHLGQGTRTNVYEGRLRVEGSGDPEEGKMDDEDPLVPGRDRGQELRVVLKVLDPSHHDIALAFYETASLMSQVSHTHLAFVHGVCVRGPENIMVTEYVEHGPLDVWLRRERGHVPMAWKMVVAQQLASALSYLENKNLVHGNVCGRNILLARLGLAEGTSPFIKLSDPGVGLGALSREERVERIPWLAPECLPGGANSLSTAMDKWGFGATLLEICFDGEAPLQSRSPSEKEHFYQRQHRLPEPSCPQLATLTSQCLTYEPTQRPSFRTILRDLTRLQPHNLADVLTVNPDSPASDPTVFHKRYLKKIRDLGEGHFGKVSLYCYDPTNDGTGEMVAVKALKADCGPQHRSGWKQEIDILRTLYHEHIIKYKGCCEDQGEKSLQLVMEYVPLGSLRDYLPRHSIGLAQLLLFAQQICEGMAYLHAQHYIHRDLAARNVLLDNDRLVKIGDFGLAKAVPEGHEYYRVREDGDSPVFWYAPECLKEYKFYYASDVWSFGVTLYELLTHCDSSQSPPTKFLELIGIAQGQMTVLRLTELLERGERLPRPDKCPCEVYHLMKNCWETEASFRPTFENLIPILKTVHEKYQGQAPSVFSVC

Row | Compound | stability [1, 6] | hygroscopicity [2] | crystalline transformation before and after the DVS test [3] | Tyk2 selective inhibitory activity [4] | stability ([1]; light (25°C/4500Lux)) | thermodynamic stability [5]
1 | CCONC(=O)c1cnc(Nc2cc(C)nc(C)n2)cc1Nc1cccc(-c2ncccn2)c1OC.O=C(O)CC(O)(CC(=O)O)C(=O)O [citric acid eutectic crystal form Type A] | remains stable | almost no hygroscopicity | did not crystallize before and after the DVS test. type transformation | – | – | –
2 | CCONC(=O)c1cnc(Nc2cc(C)nc(C)n2)cc1Nc1cccc(-c2ncccn2)c1OC [compound represented by formula (I), 6-(((2,6-二甲基嘧啶-4-基)氨基)-N-乙氧基-4-((2-甲氧基-3-(嘧啶-2-基)苯基)氨基)烟酰胺] | – | – | – | excellent Tyk2 selective inhibitory activity | – | –
3 | CCONC(=O)c1cnc(Nc2cc(C)nc(C)n2)cc1Nc1cccc(-c2ncccn2)c1OC.O=C(O)/C=C\C(=O)O [maleate crystal form Type A] | remains stable | extremely hygroscopic | does not undergo crystalline transformation | – | – | –
4 | CCONC(=O)c1cnc(Nc2cc(C)nc(C)n2)cc1Nc1cccc(-c2ncccn2)c1OC.O=C(O)CC(O)C(=O)O [malic acid eutectic crystal form Type A] | remains stable | slightly hygroscopic | did not crystallize before and after the DVS test. type transformation | – | – | –
5 | CCONC(=O)c1cnc(Nc2cc(C)nc(C)n2)cc1Nc1cccc(-c2ncccn2)c1OC [unsolvated crystalline form AH] | – | has hygroscopicity | did not undergo a crystalline transformation | – | remains stable | –
6 | CCONC(=O)c1cnc(Nc2cc(C)nc(C)n2)cc1Nc1cccc(-c2ncccn2)c1OC [unsolvated crystalline form E] | remains stable | no hygroscopicity | does not undergo a crystalline transformation | – | – | higher stability than Form AH
